In PMC3386930, “Altering APP Proteolysis: Increasing sAPPalpha Production by Targeting Dimerization of the APP Ectodomain” (PLoS ONE, 2012):
Entries after “also recorded” stand apart in the source; their conditions may differ.

Legend:
[1] = biological target: MBP-eAPP_(230–624), maltose binding protein fusion protein containing residues 230–624 (UniProt P05067); assay: small-angle X-ray scattering (SAXS); 150 µl MBP-eAPP230-624 (≈0.5 mg/ml) diluted with 400 µl of peptide solution, 20 minutes on ice, concentrated to 50 µl with 10-kDa cutoff concentrators
[2] = biological target: TRX-eAPP_(290–624), thioredoxin fusion protein containing residues 290–624 of APP695 (UniProt P05067); assay: small-angle X-ray scattering (SAXS); eAPP fragment incubated on ice with Aβ oligomers or Aβ fragments (peptide less than 10 µM), concentrated and purified on Superdex S200 in 20 mM Tris pH 7.4, 100 mM sodium chloride, 2 mM EDTA
[3] = biological target: eAPP_(230–624), fragment of the APP ectodomain containing residues 230–624 (UniProt P05067); assay: as above
[4] = tested on: B103 rat neuroblastoma cells stably expressing human wild-type APP; assay: sAPPα and sAPPβ production in B103 cells (AlphaLISA); type: cell-based; details: 1 µM compound, 24 hours, 100,000 cells per well, vs 0.01% DMSO
Protocol: (§1) B103 rat neuroblastoma cells and 7W-CHO cells were seeded at 100,000 or 50,000 cells per well in a 96-well plate and allowed to grow for one day. The B103 rat neuroblastoma cells stably expressing human wild-type APP were a kind gift from Dr. Lennart Mucke (J. David Gladstone Institute of Neurological Disease and University of California, San Francisco). The 7W-CHO cells were a kind gift from Dr. Edward Koo (Department of Molecular Pathology, University of California, San Diego). The cell culture medium was then changed and the cells treated with 1 µM disulfiram, 1 µM sulfiram, or 0.01% DMSO (control). After 24 hours, the amount of sAPPα and sAPPβ produced in the medium was quantified using the AL231C and AL232C AlphaLISA kits from Perkin Elmer, respectively, modified using a custom biotinylated APP antibody.
A) Effect of treatment with disulfiram and sulfiram on sAPPα and Aβ production in 7W-CHO cells. […] After 24 hours, the amount of sAPPα and sAPPβ produced in the medium was quantified using the AL231C and AL232C AlphaLISA kit from Perkin Elmer, modified using a custom biotinylated human APP antibody. B) Effect on the ratio of α to β cleavage in 7W-CHO cells, as calculated by dividing the amount of sAPPα to sAPPβ produced by the 50,000 7W-CHO cells during one day under the effect of either disulfiram, sulfiram or a DMSO control. […]

eAPP230–624 [5] = biological target: T1, eAPP230–624 (Homo sapiens, UniProt P05067); assay: Difference absorption spectra of eAPP230–624; type: binding
T1 construct: made in house

7W-CHO cells = assay: sAPPα and sAPPβ production in 7W-CHO cells (AlphaLISA); type: cell-based; details: for sAPPα production / α-cleavage of APP (in words): 1 µM compound, 24 hours, 50,000 cells per well, vs 0.01% DMSO
Protocol: as §1
A) Effect of treatment with disulfiram and sulfiram on sAPPα and Aβ production in 7W-CHO cells. 7W-CHO cells were seeded at 50,000 cells per well in a 96-well plate and allowed to grow for one day. The cell culture medium was then changed and the cells treated with 1 µM disulfiram, 1 µM sulfiram, or 0.01% DMSO (control). After 24 hours, the amount of sAPPα and sAPPβ produced in the medium was quantified using the AL231C and AL232C AlphaLISA kit from Perkin Elmer, modified using a custom biotinylated human APP antibody. B) Effect on the ratio of α to β cleavage in 7W-CHO cells, as calculated by dividing the amount of sAPPα to sAPPβ produced by the 50,000 7W-CHO cells during one day under the effect of either disulfiram, sulfiram or a DMSO control. C) Effect on the ratio of α to β cleavage in B103 cells. B103 neuroblastoma cells were seeded at 100,000 cells per well in a 96-well plate and allowed to grow for one day. The cell culture medium was then changed and the cells treated with 1 µM disulfiram, 1 µM sulfiram, or 0.01% DMSO (Control). After 24 hours, the amount of sAPPα and sAPPβ produced in the medium was quantified using the same modified AL231C and AL232C AlphaLISA kit from Perkin Elmer. The ratio of α to β cleavage was calculated by dividing the amount of sAPPα to sAPPβ produced by the 100,000 B103 cells during one day under the effect of the disulfiram, sulfiram or DMSO control.

eAPP230–624 [6] = biological target: T1, eAPP230–624; assay: Intrinsic tryptophan fluorescence of eAPP230–624; type: binding; details: for quenching constant (Ksv): linear part, equation 1
Protocol: (§2) The excitation spectra of the intrinsic tryptophan fluorescence were recorded using either a Shimadzu RF-530PC (Shimadzu Scientific Instruments) or a Spectramax XPS spectrophotometer (Molecular Devices).
Full emission spectra were measured with the Shimadzu RF-530PC using a 3 ml quartz cuvette, a 5 nm slit width and protein concentrations between 0.2–0.6 µM. […] For these larger dilutions, control titrations with the protein alone were used to generate a scaling matrix where the scale factor was both a function of wavelength and dilution. […] A similar scaling matrix was used to correct for the effect of dilution with DMSO. […] All titrations were performed at 24°C. The oligomers were stored on ice during the experiment.
These concentrations are analogous to concentrations used to create complexes for the small angle x-ray scattering analysis. The incubated material was diluted with PBS so that the final protein concentration was 0.5 µM. The spectra were recorded with the Shimadzu […].
For experiments with the Spectromax XPS plate reader, an excitation wavelength of 295 nm was used. This excitation wavelength was chosen to minimize both the contribution of tyrosine in the protein and the background fluorescence of the 96-well plates (Costar #3915).
For the quenching experiments, the data were analyzed by constructing Stern-Volmer plots, F0/F vs. Q, where Fo is the intensity of the fluorescence at zero concentration, F is the intensity of the fluorescence, and Q is the concentration of the quenching agent. When quenching is through either a static (binding) or dynamic (collisional) mechanism this plot is linear and follows the equation: [drawing 1] (1) where Ksv is the quenching constant. When both processes are present the Stern-Volmer plot is quadratic: [drawing 2] (2) where KD is the equilibrium constant associated with dynamic quenching and Ks is the equilibrium constant associated with static quenching. All parameters were determined using PRISM (GraphPad) and the appropriate non-linear curve fitting routine.
The centroid wavelength (λc) was calculated as: [drawing 3] (3) where I(λi) is the intensity observed for the wavelength (λi). The range of wavelengths was 310–390 nm.

MBP-eAPP230–624 = assay: Small-angle X-ray scattering (SAXS) of MBP-eAPP230–624 complexes; type: binding; details: 50 µM compound, 1:12 molar ratio, PBS plus 2% DMSO
Protocol: as §2
(§3) The samples were incubated on ice for 20 minutes and then concentrated to 50 µl with 10-kDa cutoff concentrators (Millipore). […] Samples of the filtrates were used for buffer subtraction.
(§4) The samples were then concentrated and purified with a Superdex S200 size-exclusion column with 20 mM Tris pH 7.4, 100 mM sodium chloride and 2 mM EDTA. Samples of the protein buffer from the size-exclusion columns were used for buffer subtraction.
(§5) Data collection and processing
(§6) Small-angle X-ray scattering data were collected using protein concentrations in the range of 0.5–3 mg/ml and an X-ray wavelength of 1.11 Å at beam line 12.3.1 (Advanced Light Source). Data were integrated with software customized for the beam line and processed with the program PRIMUS [30]. The program GNOM [31] was used to calculate the maximum dimension and the radius of gyration and to estimate the intensity of the scattering at zero angle for higher concentration samples.

Aβ oligomers = details: cited from earlier work
[7] = Size-exclusion chromatography of Aβ fragments; type: physicochemical; details: Superdex 75 column, PBS, indicates smaller dimers or monomers
From the text: The arrow indicates the direction of shift of the fluorescence peak. […] The black line indicates the starting concentration and the blue line indicates the final concentration. The arrow indicates the direction of shift of the fluorescence peak.

eAPP230–624 [8] = biological target: T1, eAPP230–624; assay: Small-angle X-ray scattering (SAXS) of eAPP230–624 complexes; type: binding
Protocol: as §3, §4, §5, §6

[9] = biological target: the molecule itself; assay: small-angle X-ray scattering (SAXS); eAPP fragment alone; 0.5–3 mg/ml, X-ray wavelength 1.11 Å; relative mass from I(0) against albumin and the eAPP fragment dimer

## Aβ1-28 (peptide)
[1]
  MWcalc/MWseq (apparent mass of the sample over the sequence mass of the eAPP fragment): 1.2
[2]
  MWcalc/MWseq (apparent mass of the sample over the sequence mass of the eAPP fragment): 1.5
[3]
  MWcalc/MWseq (apparent mass of the sample over the sequence mass of the eAPP fragment): 0.9

## CCN(CC)C(=S)SC(=S)N(CC)CC [Sulfiram]
[4]
  sAPPα production / α-cleavage of APP (in words): significantly enhance the production of sAPPα; also recorded: enhance α-cleavage significantly
eAPP230–624 [5]; 1:6 molar ratio, 8.3 µM eAPP230–624, 50 µM compound, PBS plus 2% DMSO
  change in extinction coefficient: significant drop in the extinction coefficient
7W-CHO cells
  sAPPα production / α-cleavage of APP (in words): increase sAPPα production
7W-CHO cells; listed as sulfiram
  sAPPα production / α-cleavage of APP (in words): significantly enhance the production of sAPPα; also recorded: enhance α-cleavage significantly
7W-CHO cells; sulfiram vs disulfiram, cell line not stated at place
  relative ability to enhance sAPPα production in cells (in words): reduced ability to enhance sAPPα production in cells
eAPP230–624 [6]; 0.64 µM eAPP230–624, disulfiram 0–130 µM, sulfiram 0–320 µM, Shimadzu RF-530PC
  quenching of intrinsic fluorescence (in words): significantly quenched the intrinsic fluorescence
eAPP230–624 [6]; intrinsic fluorescence, confirmed with SAXS
  effect on dimerization of the ectodomain fragment (in words): inhibit dimerization of the ectodomain fragment
MBP-eAPP230–624
  effect on monomer-dimer equilibrium / dimerization of MBP-eAPP230–624 (in words): significantly affected the monomer-dimer equilibrium of MBP-eAPP230–624 in favor of the monomer; also recorded: shift the monomer-dimer equilibrium in favor of the monomer

## Aβ10-20 (peptide)
[1]
  MWcalc/MWseq (apparent mass of the sample over the sequence mass of the eAPP fragment): 1.3

## O=S(=O)(O)c1cccc2cccc(Nc3ccccc3)c12 [1,8-ANS, 1-anilinonaphthalene-8-sulfonic acid]
eAPP230–624 [5]; one-to-ten molar ratio protein to 1,8-ANS, 3 µM eAPP230–624
  effect on absorption of eAPP230–624: significant effect on the absorption
eAPP230–624 [6]; 1,8-ANS below 50 µM (1:14 protein to 1,8-ANS molar ratio)
  fluorescence intensity drop: more than 50%
eAPP230–624 [6]; 1,8-ANS greater than 150 µM
  quenching of fluorescence at high concentration: quench nearly all the fluorescence
eAPP230–624 [6]; 1:20 protein to 1,8-ANS molar ratio, excitation wavelengths greater than 285 nm
  quenching of intrinsic fluorescence (FRET): efficiently quenched the intrinsic fluorescence
eAPP230–624 [6]; 345 nm, Shimadzu RF-530PC, 0.64 µM eAPP230–624, 24°C
  quenching constant (Ksv): 9.3 ± 0.1 mM⁻¹
eAPP230–624 [6]; 375 nm, Shimadzu RF-530PC, 0.64 µM eAPP230–624, 24°C
  quenching constant (Ksv): 10.9 ± 0.2 mM⁻¹
eAPP230–624 [6]; 375 nm, Spectramax XPS plate reader
  quenching constant (Ksv): 9.6 ± 0.3 mM⁻¹
Aβ oligomers
  binding to Aβ oligomers and Aβ aggregation: bind to Aβ oligomers and prevent Aβ aggregation

## Aβ1-28: Aβ fragment
[7]
  elution later than the 7-kDa peak: 0.5 mls
eAPP230–624 [6]; legend of titration of 0.64 µM eAPP230–624 with 0–60 µM fragment
  inhibition of eAPP dimerization (in words): inhibit eAPP dimerization
eAPP230–624 [6]; titration of 0.64 µM eAPP230–624, 345 nm
  pattern of changes in the intrinsic fluorescence (in words): acted like Aβ1-40 dimers in terms of the changes in the intrinsic fluorescence
eAPP230–624 [8]; SAXS relative mass, MWseq 45-kDa for eAPP230–624, max. error ±0.2, monomer around 1.3, protein alone 2.0
  MWcalc/MWseq: 0.9
eAPP230–624 [8]; SAXS, maximum dimension, GNOM, max. estimated error ±10 Å, eAPP230–624 with peptide
  Dmax: 170 Å
eAPP230–624 [8]; SAXS, radius of gyration, GNOM, max. estimated error ±2 Å, eAPP230–624 with peptide
  Rg: 46 Å

## Aβ11-17 (peptide)
[2]
  MWcalc/MWseq (apparent mass of the sample over the sequence mass of the eAPP fragment): 1.2

B1: eAPP_(230–624), fragment of the APP ectodomain containing residues 230–624 (domain or fragment, UniProt P05067-4 230-624, looked up)
chain: EEEEVAEVEEEEADDDEDDEDGDEVEEEAEEPYEEATERTTSIATTTTTTTESVEEVVRVPTTAASTPDAVDKYLETPGDENEHAHFQKAKERLEAKHRERMSQVMREWEEAERQAKNLPKADKKAVIQHFQEKVESLEQEAANERQQLVETHMARVEAMLNDRRRLALENYITALQAVPPRPRHVFNMLKKYVRAEQKDRQHTLKHFEHVRMVDPKKAAQIRSQVMTHLRVIYERMNQSLSLLYNVPAVAEEIQDEVDELLQKEQNYSDDVLANMISEPRISYGNDALMPSLTETKTTVELLPVNGEFSLDDLQPWHSFGADSVPANTENEVEPVDARPAADRGLTTRPGSGLTNIKTEEISEVKMDAEFRHDSGYEVHHQKLVFFAEDVGSNK
notes: numbers count on: APP695; Dimer by SAXS; source: expressed and purified as previously described [18]
[9]
  stoichiometry N: 2
